From US9586986B2, “Substituted 7-deazapurine ribonucleosides for therapeutic uses” (Institute of Organic Chemistry and Biochemistry ASCR, v.v.i., priority 2014, dated 2017)
Read-outs that look alike come from different tables or passages of the source.

What was measured:
Type in all cases: cell-based
CEM-DNR-bulk = assay: Cytostatic/cytotoxic MTT assay, CEM-DNR-bulk; details: Homo sapiens, 72 h, read-out: MTT, IC50 CEM-DNR-bulk
Procedure, shortened: (§1)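 Human cancer lines, including daunorubicin-resistant CEM-DNR (mrp-1/mdr-1 overexpressing) and paclitaxel-resistant K562-TAX (mdr-1), seeded 25,000-30,000 cells/well, pre-incubated 24 h, then treated in duplicate with four-fold dilutions for 72 h at 37° C, 5% CO2. MTT read-out at 540 nm; IC50 from dose-response curves.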

A549 = assay: Cytostatic/cytotoxic MTT assay, A549; details: Homo sapiens, read-out: MTT, IC50 A549
Procedure, shortened: (§2)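 IC50 values reflect the drug concentration halving cell growth in a 72 h MTT assay. Readings were taken at 540 nm after SDS lysis, using duplicate four-fold dilution series on cells plated a day earlier.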

HCT116 = assay: Cytostatic/cytotoxic MTT assay, HCT116; details: Homo sapiens, read-out: MTT, IC50 HCT116
Procedure, shortened: as §1

MRC-5 = assay: Cytostatic/cytotoxic MTT assay, MRC-5 fibroblasts; details: Homo sapiens, read-out: MTT, IC50 MRC-5
Procedure, shortened: as §2

HL60 = assay: XTT cytotoxicity assay, HL-60; details: Homo sapiens, read-out: XTT, IC50 HL60
Procedure, shortened: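 Cells seeded at 10,000 per well, compounds added after 24 h and incubated 72 h, then XTT (with N-methyl dibenzopyrazine methyl sulfate) for 2 h; absorbance at 495 nm. IC50 by non-linear regression.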

[1] = test system: HCV subtype 1B replicon in Huh-7 cells; assay: HCV sub-genomic reporter replicon assay, subtype 1B; details: Hepatitis C virus
Protocol: Compounds were also tested in Huh-7 cells harboring sub-genomic reporter replicons derived from HCV subtypes 1B and 2A (ref.: Stuyver, L. J.; Whitaker, T.; McBrayer, T. R.; Hernandez-Santiago, B. I.; Lostia, S.; Tharnish, P. M.; Ramesh, M.; Chu, C. K.; Jordan, R.; Shi, J. X.; Rachakonda, S.; Watanabe, K. A.; Otto, M. J.; Schinazi, R. F. Antimicrob. Agents Chemother. 2003, 47, 244-254).

[2] = MRC5, non-malignant fibroblasts, 72 h
[3] = Huh-7 cells, HCV subtype 1B replicon, read-out: Replicon 1B EC50
[4] = Huh-7, read-out: Replicon 1B EC50

Compound	IC50 (CEM-DNR-bulk; daunorubicin resistant subline) [µM]	IC50 (A549; A549, 72 h incubation) [µM]	IC50 (HCT116; HCT-116, 72 h incubation) [µM]	IC50 (MRC-5; [2]) [µM]	IC50 (HL60; HL-60, 72 h incubation) [nM]	EC50 [1, 3] [µM]	IC50 (CEM-DNR-bulk) [µM]	IC50 (A549; A549, 72 h) [µM]	IC50 (HCT116; HCT-116, 72 h) [µM]	IC50 (MRC-5; MRC5, 72 h) [µM]	IC50 (HL60; HL-60, 72 h) [nM]	EC50 [1, 4] [µM]
CN(C)c1ncnc2c1c(-c1ccoc1)cn2[C@@H]1O[C@H](CO)[C@@H](O)[C@H]1O [Compound 4b, 4-Dimethylamino-5-(furan-3-yl)-7-(β-D-ribofuranosyl)-7H-pyrrolo[2,3-d]pyrimidine]	> 20	> 20	> 20	> 100	1160	7.88						
CN(C)c1ncnc2c1c(-c1cccs1)cn2[C@@H]1O[C@H](CO)[C@@H](O)[C@H]1O [Compound 4c, 4-Dimethylamino-7-(β-D-ribofuranosyl)-5-(thiophen-2-yl)-7H-pyrrolo[2,3-d]pyrimidine]	> 20	> 20	> 20	> 100	11800	16.8						
CN(C)c1ncnc2c1c(-c1ccsc1)cn2[C@@H]1O[C@H](CO)[C@@H](O)[C@H]1O [Compound 4d, 4-Dimethylamino-7-(β-D-ribofuranosyl)-5-(thiophen-3-yl)-7H-pyrrolo[2,3-d]pyrimidine]	> 20	> 20	> 20	> 100	1920	38.4						
CN(C)c1ncnc2c1c(-c1ccccc1)cn2[C@@H]1O[C@H](CO)[C@@H](O)[C@H]1O [Compound 4e, 4-Dimethylamino-5-phenyl-7-(β-D-ribofuranosyl)-7H-pyrrolo[2,3-d]pyrimidine]	> 20	> 100	> 20	> 100	> 20000	26.9						
CN(C)c1ncnc2c1c(-c1cc3ccccc3o1)cn2[C@@H]1O[C@H](CO)[C@@H](O)[C@H]1O [Compound 4f, 5-(Benzofuran-2-yl)-4-dimethylamino-7-(β-D-ribofuranosyl)-7H-pyrrolo[2,3-d]pyrimidine]	> 20	> 20	> 20	> 100	> 20000	19.2						
C#Cc1cn([C@@H]2O[C@H](CO)[C@@H](O)[C@H]2O)c2ncnc(N(C)C)c12 [Compound 4g, 4-Dimethylamino-5-ethynyl-7-(β-D-ribofuranosyl)-7H-pyrrolo[2,3-d]pyrimidine]	0.24	0.39	0.18	36.1	290	0.07						
CN(C)c1ncnc2c1c(I)cn2[C@@H]1O[C@H](CO)[C@@H](O)[C@H]1O [Compound 4h, 4-Dimethylamino-5-iodo-7-(β-D-ribofuranosyl)-7H-pyrrolo[2,3-d]pyrimidine]	0.1	0.34	0.09	91.7	50	0.69						
Cc1ncnc2c1c(-c1ccco1)cn2[C@@H]1O[C@H](CO)[C@@H](O)[C@H]1O [Compound 5a, 5-(Furan-2-yl)-4-methyl-7-(β-D-ribofuranosyl)-7H-pyrrolo[2,3-d]pyrimidine]	0.07	0.11	0.04	0.61	210	0.07						
Cc1ncnc2c1c(-c1ccoc1)cn2[C@@H]1O[C@H](CO)[C@@H](O)[C@H]1O [Compound 5b, 5-(Furan-3-yl)-4-methyl-7-(β-D-ribofuranosyl)-7H-pyrrolo[2,3-d]pyrimidine]	> 20	> 20	> 20	98.3	> 15000	4.43						
Cc1ncnc2c1c(-c1cccs1)cn2[C@@H]1O[C@H](CO)[C@@H](O)[C@H]1O [Compound 5c, 4-Methyl-7-(β-D-ribofuranosyl)-5-(thiophen-2-yl)-7H-pyrrolo[2,3-d]pyrimidine]	> 20	> 20	> 20	> 100	5730	6.67						
Cc1ncnc2c1c(-c1ccsc1)cn2[C@@H]1O[C@H](CO)[C@@H](O)[C@H]1O [Compound 5d, 4-Methyl-7-(β-D-ribofuranosyl)-5-(thiophen-3-yl)-7H-pyrrolo[2,3-d]pyrimidine]	8.56	> 20	0.46	> 100	350	4.47						
Cc1ncnc2c1c(-c1ccccc1)cn2[C@@H]1O[C@H](CO)[C@@H](O)[C@H]1O [Compound 5e, 4-Methyl-5-phenyl-7-(β-D-ribofuranosyl)-7H-pyrrolo[2,3-d]pyrimidine]	> 20	> 20	> 100	> 100	> 20000	34.8						
Cc1ncnc2c1c(-c1cc3ccccc3o1)cn2[C@@H]1O[C@H](CO)[C@@H](O)[C@H]1O [Compound 5f, 5-(Benzofuran-2-yl)-4-methyl-7-(β-D-ribofuranosyl)-7H-pyrrolo[2,3-d]pyrimidine]	> 20	> 20	> 20	84.4	> 20000	6.76						
C#Cc1cn([C@@H]2O[C@H](CO)[C@@H](O)[C@H]2O)c2ncnc(C)c12 [Compound 5g, 5-Ethynyl-4-methyl-7-(β-D-ribofuranosyl)-7H-pyrrolo[2,3-d]pyrimidine]	0.16	19.2	> 20	1.44	1110	0.23						
COc1ncnc2c1ccn2[C@@H]1O[C@H](CO)[C@@H](O)[C@H]1O [RC1, reference compound]	> 20	> 20	> 20	> 100	> 20000	43.2						
CSc1ncnc2c1ccn2[C@@H]1O[C@H](CO)[C@@H](O)[C@H]1O [RC2, reference compound]							3.61	> 20	> 20	> 100	7190	29.9
CNc1ncnc2c1ccn2[C@@H]1O[C@H](CO)[C@@H](O)[C@H]1O [RC3, reference compound]	4.89	> 20	> 20	97.8	12800	0.82						
CN(C)c1ncnc2c1ccn2[C@@H]1O[C@H](CO)[C@@H](O)[C@H]1O [RC4, reference compound]	2.6	> 20	18.4	58.2	870	0.27						
Cc1ncnc2c1ccn2[C@@H]1O[C@H](CO)[C@@H](O)[C@H]1O [RC5, 4-Methyl-7-(β-D-ribofuranosyl)-7H-pyrrolo[2,3-d]pyrimidine, reference compound]							0.05	0.03	0.03	0.09	20	0.02
